Assay results reported in PubChem BioAssay (NCI).
“And” between values parts separate entries of the source, which are not always exact repeats. Equal entries are not always repeated.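 These data come from cells grown in 96-well plates and exposed to compound for 48 hours at five concentrations. GI50 marks 50% less growth. Definition used: TGI = concentration required for complete inhibition of growth.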

Assays:
Assay in all cases: NCI tumour cell line growth inhibition, 48 h
[1] = tested on: SF-539 CNS
[2] = tested on: HOP-92 NSCLC
[3] = tested on: PC-3 prostate
[4] = tested on: KM12 colon
[5] = tested on: MOLT-4 leukemia
[6] = tested on: NCI-H522 lung
[7] = tested on: MDA-MB-435
[8] = tested on: SW-620 colon
[9] = tested on: 786-0 renal
[10] = tested on: SF-268 CNS

ClC1=C(Cl)C(Cl)=C(Cl)C1=C/C=C/c1ccccc1
GI50 [1]: 0.206 µM
TGI [1]: 0.699 µM
GI50 [2]: 0.165 µM
TGI [2]: 0.491 µM
GI50 [3]: 0.276 µM
TGI [3]: 2.65 µM
GI50 [4]: 0.272 µM
TGI [4]: 0.684 µM
GI50 [5]: 0.335 µM
GI50 [6]: 0.216 µM
TGI [6]: 0.562 µM
GI50 [7]: 0.302 µM
TGI [7]: 0.977 µM
GI50 [8]: 0.299 µM
TGI [8]: 0.869 µM
GI50 [9]: 0.444 µM
TGI [9]: 2.05 µM
GI50 [10]: 0.261 µM
TGI [10]: 1.51 µM

NC(CSC(c1ccccc1)(c1ccccc1)c1ccc(Cl)cc1)C(=O)O (configuration not stated)
GI50 [1]: 0.148 µM
TGI [1]: 2.87 µM
GI50 [2]: 1.4 µM
TGI [2]: 39.3 µM
GI50 [3]: 0.342 µM
TGI [3]: 32.6 µM
GI50 [4]: 0.322 µM
TGI [4]: 15.1 µM
GI50 [5]: 1.66 µM
TGI [5]: 53.3 µM
GI50 [6]: 0.128 µM
TGI [6]: 3.71 µM
GI50 [7]: 0.0344 µM
TGI [7]: 0.158 µM
GI50 [8]: 0.19 µM
TGI [8]: > 78.7 µM
GI50 [9]: 1.36 µM
TGI [9]: 30 µM
GI50 [10]: 0.399 µM
TGI [10]: 26.5 µM

CC1/C=C/C=C/C=C/C=C/C=C/C=C/C=C/C(O[C@@H]2O[C@H](C)[C@H](O)[C@@H](O)[C@@H]2N)CC(O)C(C(=O)O)C(O)CC(=O)CC(O)CC(O)CC(O)CC(=O)CCCC(=O)CC(=O)OC1C(C)CC(C)C(O)CC(=O)c1ccc(N)cc1 (some centres not stated)
GI50 [1]: 0.0604 µM and 0.481 µM
GI50 [2]: 0.184 µM
TGI [2]: 0.537 µM
GI50 [3]: 0.0646 µM and 0.222 µM
TGI [3]: 0.137 µM and 0.552 µM
GI50 [4]: 0.0694 µM and 0.574 µM
GI50 [5]: 0.0679 µM and 0.172 µM
TGI [5]: 0.143 µM and 0.402 µM
GI50 [6]: 0.0512 µM and 0.161 µM
TGI [6]: 0.0986 µM and 0.314 µM
GI50 [7]: 0.0597 µM and 0.208 µM
TGI [7]: 0.108 µM and 0.438 µM
GI50 [8]: 0.0588 µM and 0.198 µM
TGI [8]: 0.109 µM and 0.43 µM
GI50 [9]: 0.0591 µM and 0.172 µM
TGI [9]: 0.111 µM and 0.346 µM
GI50 [10]: 0.0565 µM and 0.202 µM
TGI [10]: 0.102 µM and 0.409 µM

OCCCN=NNc1ccc(-c2nc3ccccc3[nH]2)cc1
GI50 [1]: 5.97 µM
TGI [1]: 28.4 µM
GI50 [2]: 14.8 µM
TGI [2]: 66.5 µM
GI50 [3]: 24.1 µM
TGI [3]: 77.5 µM
GI50 [4]: 5.12 µM
TGI [4]: 24.9 µM
GI50 [5]: 43.6 µM
TGI [5]: > 100 µM
GI50 [6]: 12.5 µM
TGI [6]: 60.6 µM
GI50 [7]: 3.44 µM
TGI [7]: 16.1 µM
GI50 [8]: 3.04 µM
TGI [8]: > 100 µM
GI50 [9]: 17 µM
TGI [9]: 46.7 µM
GI50 [10]: 6.16 µM
TGI [10]: 32.1 µM

Cc1cc2cc3cc(C)c(N(C)C)cc3nc2cc1N(C)C
GI50 [1]: 3.08 µM
TGI [1]: 12.7 µM
GI50 [2]: 1.83 µM
TGI [2]: 8.36 µM
GI50 [3]: 2.4 µM
TGI [3]: 39.9 µM
GI50 [4]: 1.66 µM
TGI [4]: 6.22 µM
GI50 [5]: 3.29 µM
TGI [5]: > 100 µM
GI50 [6]: 3.76 µM
TGI [6]: 30 µM
GI50 [7]: 2.77 µM
TGI [7]: 11.8 µM
GI50 [8]: 3.1 µM
TGI [8]: 26.6 µM
GI50 [9]: 3.87 µM
TGI [9]: 16.3 µM
GI50 [10]: 3.45 µM
TGI [10]: 15.1 µM

CCN(CC)c1cc(/C=C/c2ccc(OC)c(OC)c2)nc2cc(F)c(F)cc12
GI50 [1]: 10.4 µM
TGI [1]: 92.9 µM
GI50 [2]: 1.68 µM
TGI [2]: 4.74 µM
GI50 [3]: > 100 µM
TGI [3]: > 100 µM
GI50 [4]: > 100 µM
TGI [4]: > 100 µM
GI50 [5]: 14.2 µM
TGI [5]: 33.6 µM
GI50 [6]: 6.35 µM
TGI [6]: > 100 µM
GI50 [7]: > 100 µM
TGI [7]: > 100 µM
GI50 [8]: > 100 µM
TGI [8]: > 100 µM
GI50 [9]: 1.98 µM
TGI [9]: 4.77 µM
GI50 [10]: 3.15 µM
TGI [10]: 11.4 µM

C=C(C)[C@@H]1CC[C@]2(C)[C@H](C(=O)C=C3[C@@H]4C[C@](C)(C(=O)N5CCN(C)CC5)CC[C@]4(C)CC[C@]32C)[C@@]1(C)CCC#N
GI50 [1]: 6.3 µM
TGI [1]: 12.7 µM
GI50 [2]: 3.25 µM
TGI [2]: 10.2 µM
GI50 [3]: 3.17 µM
TGI [3]: 10.4 µM
GI50 [4]: 6.43 µM
TGI [4]: 13.4 µM
GI50 [5]: 2.95 µM
TGI [5]: 10.9 µM
GI50 [6]: 7.21 µM
TGI [6]: 15.3 µM
GI50 [7]: 7.33 µM
TGI [7]: 14.2 µM
GI50 [8]: 6.99 µM
TGI [8]: 14.9 µM
GI50 [9]: 7.03 µM
TGI [9]: 13.7 µM
GI50 [10]: 7.26 µM
TGI [10]: 15.2 µM

CC(C)CCOc1ccc(-c2n[nH]c(C(F)(F)F)c2-c2cncc(C#N)c2)c(O)c1
GI50 [1]: 2.8 µM
TGI [1]: 16.7 µM
GI50 [2]: 0.519 µM
TGI [2]: 3.33 µM
GI50 [3]: 2.12 µM
TGI [3]: > 100 µM
GI50 [4]: 3.33 µM
TGI [4]: > 100 µM
GI50 [5]: 2.47 µM
TGI [5]: 12.7 µM
GI50 [6]: 1.8 µM
TGI [6]: 10 µM
GI50 [7]: 3.6 µM
TGI [7]: 32.6 µM
GI50 [8]: 3.44 µM
TGI [8]: > 100 µM
GI50 [9]: 2.96 µM
TGI [9]: 13.1 µM
GI50 [10]: 4.18 µM
TGI [10]: > 100 µM

Cc1nc2sccn2c(=O)c1CCN1CCC(=C(c2ccc(F)cc2)c2ccc(F)cc2)CC1
GI50 [1]: 15 µM
TGI [1]: 28.9 µM
GI50 [2]: 5.16 µM
TGI [2]: 19.2 µM
GI50 [3]: 4.81 µM
TGI [3]: 19.3 µM
GI50 [4]: 12.2 µM
TGI [4]: 27.4 µM
GI50 [5]: 8.52 µM
TGI [5]: 29.9 µM
GI50 [6]: 11.1 µM
TGI [6]: 25.7 µM
GI50 [7]: 14.2 µM
TGI [7]: 28.2 µM
GI50 [8]: 10.9 µM
TGI [8]: 24.1 µM
GI50 [9]: 12 µM
TGI [9]: 27.8 µM
GI50 [10]: 15.9 µM
TGI [10]: 32.8 µM
